Measurements: ChEMBL document CHEMBL1139992, “Synthesis and biological activity of enantiomeric pairs of 5-vinylthiolactomycin congeners” (Bioorg Med Chem Lett, 2007)
Values after ≈ are worked out from the molar mass of the structure shown.

Experiments:
[1] = Inhibition of type1 FAS in HepG2 cells; type: cell-based, Homo sapiens
Moraxella catarrhalis = test: Antimicrobial activity against Moraxella catarrhalis ATCC 25238; type: functional
Staphylococcus aureus = test: Antimicrobial activity against Staphylococcus aureus; type: functional
Haemophilus influenzae = test: Antimicrobial activity against Haemophilus influenzae IID983; type: functional
Bacteroides fragilis = test: Antimicrobial activity against Bacteroides fragilis GAI5560; type: functional

Row | SMILES | IC50 [1] [µg/mL] | MIC (Moraxella catarrhalis) [µg/mL] | MIC (Staphylococcus aureus) [µg/mL] | MIC (Haemophilus influenzae) [µg/mL] | MIC (Bacteroides fragilis) [µg/mL]
1 | C=C/C(C)=C/[C@]1(C)SC(=O)C(C)=C1O | 43.7 (≈ 208 µM) | > 128 | > 128 | – | –
2 | CCC/C=C/[C@]1(C)SC(=O)C=C1O | 8.8 (≈ 44.4 µM) | > 128 | > 128 | > 128 | > 128
3 | C=C[C@]1(C)SC(=O)C(C)=C1O | > 80 | > 128 | > 128 | > 128 | > 128
4 | C=C[C@]1(C)SC(=O)C=C1O | 70.1 (≈ 449 µM) | > 128 | > 128 | > 128 | > 128
5 | C/C=C/[C@@]1(C)SC(=O)C(C)=C1O | 72.3 (≈ 392 µM) | > 128 | > 128 | > 128 | > 128
6 | C/C=C/[C@@]1(C)SC(=O)C=C1O | 72.1 (≈ 424 µM) | > 128 | > 128 | > 128 | > 128
7 | CC/C=C/[C@@]1(C)SC(=O)C(C)=C1O | 57.5 (≈ 290 µM) | > 128 | > 128 | > 128 | > 128
8 | CC/C=C/[C@]1(C)SC(=O)C(C)=C1O | 47 (≈ 237 µM) | > 128 | > 128 | > 128 | > 128
9 | CC/C=C/[C@]1(C)SC(=O)C=C1O | 18.9 (≈ 103 µM) | > 128 | > 128 | > 128 | > 128
10 | CCC/C=C/[C@]1(C)SC(=O)C(C)=C1O | 20 (≈ 94.2 µM) | > 128 | > 128 | > 128 | > 128
11 | CCC/C=C/[C@@]1(C)SC(=O)C=C1O | 41.6 (≈ 210 µM) | > 128 | > 128 | > 128 | > 128
12 | CCCC/C=C/[C@]1(C)SC(=O)C(C)=C1O | 19.9 (≈ 87.9 µM) | > 128 | > 128 | > 128 | > 128
13 | CCCC/C=C/[C@@]1(C)SC(=O)C=C1O | 18.6 (≈ 87.6 µM) | > 128 | > 128 | > 128 | > 128
14 | CCCCCC/C=C/[C@@]1(C)SC(=O)C(C)=C1O | 57 (≈ 224 µM) | > 128 | > 128 | > 128 | > 128
15 | CCCCCC/C=C/[C@@]1(C)SC(=O)C=C1O | 20.1 (≈ 83.6 µM) | > 128 | > 128 | > 128 | > 128
16 | C=C1C(=O)O[C@@H](CCCCCCCC)[C@@H]1C(=O)O | 7.4 (≈ 29.1 µM) | – | – | – | –
17 | C=C/C(C)=C/[C@@]1(C)SC(=O)C=C1O | > 80 | 16 (≈ 81.5 µM) | > 128 | 32 (≈ 163 µM) | 128 (≈ 652 µM)
18 | C=C/C(C)=C/[C@]1(C)SC(=O)C=C1O | 19 (≈ 96.8 µM) | > 128 | > 128 | – | –
19 | C=C[C@@]1(C)SC(=O)C(C)=C1O | > 80 | > 128 | > 128 | > 128 | > 128
20 | CCCC/C=C/[C@@]1(C)SC(=O)C(C)=C1O | 33.7 (≈ 149 µM) | > 128 | > 128 | > 128 | > 128
21 | CCCC/C=C/[C@]1(C)SC(=O)C=C1O | 21 (≈ 98.9 µM) | > 128 | > 128 | > 128 | > 128
22 | CC/C=C/[C@@]1(C)SC(=O)C=C1O | 40.3 (≈ 219 µM) | > 128 | > 128 | > 128 | > 128
23 | C/C=C/[C@]1(C)SC(=O)C(C)=C1O | 37.1 (≈ 201 µM) | > 128 | > 128 | > 128 | > 128
24 | C/C=C/[C@]1(C)SC(=O)C=C1O | > 80 | > 128 | > 128 | > 128 | > 128
25 | C=C[C@@]1(C)SC(=O)C=C1O | > 80 | > 128 | > 128 | > 128 | > 128
26 | CCC/C=C/[C@@]1(C)SC(=O)C(C)=C1O | 41.5 (≈ 195 µM) | > 128 | > 128 | > 128 | > 128
27 | CCCCCC/C=C/[C@]1(C)SC(=O)C(C)=C1O (stereo in doubt; form 1) | 34.8 (≈ 137 µM) | – | – | – | –
28 | O=C(O)c1cn(C2CC2)c2cc(N3CCNCC3)c(F)cc2c1=O [CIPROFLOXACIN] | – | 0.031 (≈ 0.0936 µM) | 0.063 (≈ 0.19 µM) | 0.008 (≈ 0.0241 µM) | 4 (≈ 12.1 µM)
29 | C=C/C(C)=C/[C@@]1(C)SC(=O)C(C)=C1O [THIOLACTOMYCIN] | > 80 | 0.25 (≈ 1.19 µM) | 128 (≈ 609 µM) | 2 (≈ 9.51 µM) | 1 (≈ 4.76 µM)
